Data: patent publication US7488822B2 (Wyeth, priority 1999, dated 2009)
Several values for one entry are separate records, joined by “and”; a condition that tells them apart may be missing. Equal entries are not always repeated.

Assays:
[1] = system: rat uterine decidualization; assay: Rat decidualization assay; type: in vivo; conditions: for Decidualization IC50: decrease in EC50 progesterone induced decidual response; for Estimated EC50 (mg/kg, s.c.): uterine wet weight; for Estimated average EC50 (mg/kg, s.c.): average for dose-response curves
Procedure: The animals are treated once daily for seven days. […] Uteri are removed and trimmed of fat.
Body weight: Mean total animal body weight (default-kg)
Decidual response: [(D-C)/C]×100%

[2] = system: T47D cells; assay: T47D cell proliferation assay (BrdU incorporation); type: cell-based; conditions: half-maximal decrease in trimegestone induced BrdU incorporation, individual studies, read-out: Estimated IC50
Procedure: T47D cell proliferation assay • The objective of this assay is the determination of progestational and antiprogestational potency by using a cell proliferation assay in T47D cells. A compound's effect on DNA synthesis in T47D cells is measured. […] Growth medium: DMEM:F12 (1:1) (GIBCO, BRL) supplemented with 10% (v/v) fetal bovine serum (not heat-inactivated), 100 U/ml penicillin, […], and 2 mM GlutaMax (GIBCO, BRL). • b. Treatment medium: Minimum Essential Medium (MEM) (#51200-038GIBCO, BRL) phenol red-free supplemented with 0.5% charcoal stripped fetal bovine serum, 100 U/ml penicillin, […] streptomycin, and 2 mM GlutaMax (GIBCO, BRL). • c. Cell Culture • Stock T47 D cells are maintained in growth medium. For BrdU incorporation assay, cells are plated in 96-well plates (Falcon, Becton Dickinson Labware) at 10,000 cells/well in growth medium. […] Cell Proliferation Assay • At the end of BrdU labeling, the medium is removed and BrdU incorporation is measured using a cell proliferation ELISA kit (#RPN 250, Amersham Life Science) according to manufacturer's instructions. […] Then 25 μl of 1 M sulfuric acid is added to each well to stop color reaction and optical density is read in a plate reader at 450 nm within 5 min. • e. […] EC50 or IC50 values are calculated from the retransformed values. […]

## Cc1cc(C#N)sc1-c1ccc2c(c1)C1(CCCCC1)OC(=O)N2 [Compound 10, 5-(1,2-Dihydro-2-oxospiro[4H-3,1-benzoxazine-4,1-cyclohexan]-6-yl)-4-methyl-2-thiophenecabonitrile]
[1]; @ 10 mg/kg
  Decidualization, percentage inhibition at the dose specified: 50% @

## Cc1cc(C#N)sc1-c1ccc2c(c1)C(C)(C)OC(=O)N2 [Compound 18, 5-(4,4-Dimethyl-2-oxo-1,4-dihydro-2H-benzo[d][1,3]oxazin-6-yl)-4-methyl-thiophene-2-carbonitrile]
[1]
  Decidualization IC50: 1.5 mg/kg

## CC1(C)OC(=O)Nc2ccc(-c3cc(F)cc(C#N)c3)cc21 [Compound 19, 3-(4,4-Dimethyl-2-oxo-1,4-dihydro-2H-benzo[d][1,3]oxazin-6-yl)-5-fluorobenzonitrile]
[1]
  Decidualization IC50: 0.35 mg/kg

## CC(=O)O[C@]1(C(C)=O)CC[C@H]2[C@@H]3C[C@H](C)C4=CC(=O)CC[C@]4(C)[C@H]3CC[C@@]21C [MPA, medroxyprogesterone acetate]
[1]; individual studies
  Estimated EC50 (mg/kg, s.c.): 0.42 mg/kg and 0.39 mg/kg (2×)

## C#C[C@]1(O)CC[C@H]2[C@@H]3CCC4=CC(=O)CC[C@@H]4[C@H]3C(=C)C[C@@]21CC [3-Ketodesogestrel]
[1]
  Estimated average EC50 (mg/kg, s.c.): 0.10 mg/kg
[1]; individual studies
  Estimated EC50 (mg/kg, s.c.): 0.10 mg/kg and 0.06 mg/kg and 0.11 mg/kg

## CC1(C)OC(=O)Nc2ccc(-c3ccc(F)c(Cl)c3)cc21 [Compound 20, 6-(3-Chloro-4-fluoro-phenyl)-4,4-dimethyl-1,4-dihydro-benzo[d][1,3]oxazin-2-one]
[1]
  Decidualization IC50: 1 mg/kg

## CC1(C)OC(=O)Nc2ccc(-c3ccc(C#N)c(F)c3)cc21 [Example 114, 6-(4-Cyano-3-fluoro-phenyl)-4,4-dimethyl-1,4-dihydrobenzo[d][1,3]-oxazin-2-one]
other
  melting point: 272 to 275 °C

## CC1(C)OC(=O)Nc2ccc(-c3cccc(Br)c3)cc21 [Compound 13, 6-(3-Bromo-phenyl)-4,4-dimethyl-1,4-dihydro-benzo[d][1,3]-oxazin-2-one]
[1]
  Decidualization IC50: 3 mg/kg

## CC1(C)OC(=O)Nc2ccc(-c3csc(C#N)c3)cc21 [Compound 17, 4-(4,4-Dimethyl-2-oxo-1,4-dihidro-2H-benzo[d][1,3]oxazin-6-yl)-thiophene-2-carbonitrile]
[1]
  Decidualization IC50: 2.3 mg/kg

## CC1(C)OC(=O)Nc2ccc(-c3ccc(S(N)(=O)=O)s3)cc21 [Example 141, 5-(4,4Dimethyl-2-oxo-1,4-dihydro-2H-benzo[d][1,3]-oxazin-6-yl)-thiophene-2-sulfonamide]
other
  melting point: 258 to 260 °C

## CC(=O)[C@H]1CC[C@H]2[C@@H]3CCC4=CC(=O)CC[C@]4(C)[C@H]3CC[C@]12C [Progesterone]
[1]; individual studies
  Estimated EC50 (mg/kg, s.c.): 5.50 mg/kg

## C#C[C@]1(O)CC[C@H]2[C@@H]3CCC4=CC(=O)CC[C@@H]4[C@H]3CC[C@@]21CC [Levonorgestrel]
[1]
  Estimated average EC50 (mg/kg, s.c.): 0.10 mg/kg
[1]; individual studies
  Estimated EC50 (mg/kg, s.c.): 0.08 mg/kg and 0.12 mg/kg and 0.09 mg/kg (2×)

## CC1(C)OC(=O)Nc2ccc(-c3coc(C#N)c3)cc21 [Compound 7, 4-(4,4-Dimethyl-2-oxo-1,4-dihydro-2H-benzo[d][1,3]oxazin-6-yl)-furan-2-carbonitrile]
[1]; @ 3 mg/kg, read-out: Decidualization, percentage inhibition at the dose specified
  inhibition at 3 mg/kg: 75%

## N#Cc1cc(F)cc(-c2ccc3c(c2)C(C2CC2)(C2CC2)OC(=O)N3)c1 [Compound 15, 3-(4,4-Dicyclopropyl-2-oxo-1,4-dihydro-2H-benzo[d][1,3]oxazin-6-yl)-5-fluoro-benzonitrile]
[1]
  Decidualization IC50: 3 mg/kg

## CC#C[C@]1(O)CC[C@H]2[C@@H]3CCC4=CC(=O)CCC4=C3[C@@H](c3ccc(N(C)C)cc3)C[C@@]21C [RU486]
[2]
  IC50: 0.016 nM and 0.018 nM
[1]; p.o., EC50 dose of progesterone, individual studies
  Estimated IC50 (mg/kg, p.o.): 0.21 mg/kg and 0.14 mg/kg
